Results on 34 compounds are retold here after patent publication US12662469B2 (SIRONAX LTD, priority 2018, dated 2026).

SMILES strings stand for the structures.

In the first assay the test system is Cell Necrosis. Description: Cell necrosis assay / cell viability assay (necrosis inhibitor activity). Type of assay: cell-based.
Settings: not given
Turning to `O=C1COc2cc(F)c(OC3CN(C(=O)N4N=CC[C@H]4c4ccccc4)C3)cc2N1` [Compound 192, (S)-7-fluoro-6-((1-(5-phenyl-4,5-dihydro-1H-pyrazole-1-carbonyl)azetidin-3-yl)oxy)-2H-benzo[b][1,4]oxazin-3(4H)-one], the “activity based on the cell activity assay” value was “potent activity”.

The assay is the same for the next values; noted with them: necrosis inhibitor activity; EC data for 14-191 extrapolated; read-out: EC50.
Consider `C[C@H]1CN(c2ncc(Cl)cn2)CCN1C(=O)N1N=CCC1c1ccccc1` (stereo partly drawn) [Compound 113A, ((S)-4-(5-chloropyrimidin-2-yl)-2-methylpiperazin-1-yl)(5-phenyl-4,5-dihydro-1H-pyrazol-1-yl)methanone], for which the EC50 was 0.001 to 1 µM.

Take `O=C(N1CCN(c2ncc(F)cn2)CC1)N1N=CCC1c1cc(F)cc(F)c1` (centres unmarked) [Compound 101, (5-(3,5-difluorophenyl)-4,5-dihydro-1H-pyrazol-1-yl)(4-(5-fluoropyrimidin-2-yl)piperazin-1-yl)methanone]: the EC50 is 0.001 to 1 µM.

Consider `O=C(N1CC[C@@H](Oc2ncc(F)cn2)C1)N1N=CCC1c1ccccc1` (stereo partly drawn) [Compound 34, ((R)-3-((5-fluoropyrimidin-2-yl)oxy)pyrrolidin-1-yl)(5-phenyl-4,5-dihydro-1H-pyrazol-1-yl)methanone], for which the EC50 was 1 to 10 µM.

On to `O=C(N1CC(Cc2ccc(Cl)cc2F)C1)N1N=CCC1c1ccccc1` (centres unmarked) [Compound 51, (3-(4-chlor-2-fluorobenzyl)azetidin-1-yl)(5-phenyl-4,5-dihydro-1H-pyrazol-1-yl)methanone], for which the EC50 was 0.001 to 1 µM.

With `O=C(c1ccco1)N1CCN(C(=O)N2N=CCC2c2ccccc2)CC1` (centres unmarked) [Compound 94, (4-(furan-2-carbonyl)piperazin-1-yl)(5-phenyl-4,5-dihydro-1H-pyrazol-1-yl)methanone], the EC50 is 1 to 10 µM.

For `O=C(N1CC(Oc2ccc3ccc(=O)[nH]c3c2)C1)N1N=CCC1c1cc(F)cc(F)c1` (centres unmarked) [Compound 181], the EC50 was 0.001 to 1 µM.

Consider `O=C(N1CC(Oc2c(F)cc(F)cc2F)C1)N1N=CCC1c1cc(F)cc(F)c1` (centres unmarked) [Compound 126, (5-(3,5-difluorophenyl)-4,5-dihydro-1H-pyrazol-1-yl)(3-(2,4,6-trifluorophenoxy)azetidin-1-yl)methanone], for which the EC50 was 0.001 to 1 µM.

Take `O=C(N1CC(Oc2cc(Br)ncn2)C1)N1N=CCC1c1ccccc1` (centres unmarked) [Compound 127, (3-((6-bromopyrimidin-4-yl)oxy)azetidin-1-yl)(5-phenyl-4,5-dihydro-1H-pyrazol-1-yl)methanone]: the EC50 was 0.001 to 1 µM.

With `C#Cc1cc(OC2CN(C(=O)N3N=CCC3c3ccccc3)C2)ncn1` (centres unmarked) [Compound 125, (3-((6-ethynylpyrimidin-4-yl)oxy)azetidin-1-yl)(5-phenyl-4,5-dihydro-1H-pyrazol-1-yl)methanone], the 50% effective concentration (EC50) was 1 to 10 µM.

Consider `O=C(N1CC(Cc2cccc(O)c2)C1)N1N=CCC1c1ccccc1` (centres unmarked) [Compound 44, (3-(3-hydroxybenzyl)azetidin-1-yl)(5-phenyl-4,5-dihydro-1H-pyrazol-1-yl)methanone], for which the EC50 is 1 to 10 µM.

Turning to `O=C(N1CC(Oc2ccc(F)c(F)c2)C1)N1N=CCC1c1ccccc1` (centres unmarked) [Compound 66, (3-(3,4-difluorophenoxy)azetidin-1-yl)(5-phenyl-4,5-dihydro-1H-pyrazol-1-yl)methanone], the EC50 was 0.001 to 1 µM.

Regarding `O=C(N1CC(Cc2ccc(F)cc2Cl)C1)N1N=CCC1c1ccccc1` (centres unmarked) [Compound 52, (3-(2-chloro-4-fluorobenzyl)azetidin-1-yl)(5-phenyl-4,5-dihydro-1H-pyrazol-1-yl)methanone], the EC50 is 0.001 to 1 µM.

On to `O=C(N1CC(Oc2ccccc2F)C1)N1N=CC[C@H]1c1cc(F)cc(F)c1` [Compound 144], for which the EC50 is 0.001 to 1 µM.

Regarding `O=C(N1CCC(Cc2ccccc2)C1)N1N=CCC1c1ccccc1` (centres unmarked) [Compound 17, (3-benzylpyrrolidin-1-yl)(5-phenyl-4,5-dihydro-1H-pyrazol-1-yl)methanone], the EC50 was 0.001 to 1 µM.

For `O=C(N1CC(Oc2ccc(F)cc2)C1)N1N=CC[C@H]1c1cc(F)cc(F)c1` [Compound 143], the EC50 is 0.001 to 1 µM.

In the case of `C[C@@H]1CN(c2ncc(F)cn2)C[C@H](C)N1C(=O)N1N=CCC1c1ccccc1` (stereo partly drawn) [Compound 28, ((2R,6S)-4-(5-fluoropyrimidin-2-yl)-2,6-dimethylpiperazin-1-yl)(5-phenyl-4,5-dihydro-1H-pyrazol-1-yl)methanone], the EC50 is 0.001 to 1 µM.

Regarding `C[C@H]1CN(c2ncc(Cl)cn2)CCN1C(=O)N1N=CCC1c1ccccc1` (stereo partly drawn) [Compound 113B, ((S)-4-(5-chloropyrimidin-2-yl)-2-methylpiperazin-1-yl)(5-phenyl-4,5-dihydro-1H-pyrazol-1-yl)methanone], the EC50 was 1 to 10 µM.

With `O=C(N1CCN(c2ncc(Cl)cn2)CC1)N1N=CCC1c1ccccc1` (centres unmarked) [Compound 88, (4-(5-chloropyrimidin-2-yl)piperazin-1-yl)(5-phenyl-4,5-dihydro-1H-pyrazol-1-yl)methanone], the EC50 was 0.001 to 1 µM.

Still in this assay, the particulars now being: necrosis inhibitor activity; compounds outside 14-191; read-out: EC50.
For the compound `Nc1cccc(OC2CN(C(=O)N3N=CCC3c3cc(F)cc(F)c3)C2)c1` (centres unmarked) [Compound 229, (3-(3-aminophenoxy)azetidin-1-yl)(5-(3,5-difluorophenyl)-4,5-dihydro-1H-pyrazol-1-yl)methanone], the EC50 fell in the range of 0.001 to 1 µM.

Turning to `O=C(N1CC[C@@H](Oc2cccc(NCCN3CCOCC3)n2)C1)N1N=CC[C@H]1c1cc(F)cc(F)c1` [Compound 358], the EC50 was in the range of 0.001 to 1 µM.

Turning to `Nc1ccc(F)c(OC2CN(C(=O)N3N=CC[C@H]3c3cc(F)cc(F)c3)C2)n1` [Compound 251, (S)-(3-((6-amino-3-fluoropyridin-2-yl)oxy)azetidin-1-yl)(5-(3,5-difluorophenyl)-4,5-dihydro-1H-pyrazol-1-yl)methanone], the EC50 fell in the range of 0.001 to 1 µM.

As for `O=C(c1cc2sc(OC3CN(C(=O)N4N=CC[C@H]4c4cc(F)cc(F)c4)C3)nc2[nH]1)N1CCC1` [Compound 261, (S)-azetidin-1-yl(2-((1-(5-(3,5-difluorophenyl)-4,5-dihydro-1H-pyrazole-1-carbonyl)azetidin-3-yl)oxy)-4H-pyrrolo[2,3-d]thiazol-5-yl)methanone], the EC50 lay in the range of 0.001 to 1 µM.

Turning to `N#Cc1cncc([C@@H]2CC=NN2C(=O)N2CC(Oc3cc4c(cc3F)OCC(=O)N4)C2)c1` [Compound 197, (S)-5-(1(3-((7-fluoro-3-oxo-3,4-dihydro-2H-benzo[b][1,4]oxazin-6-yl)oxy)azetidine-1-carbonyl)-4,5-dihydro-1H-pyrazol-5-yl)nicotinonitrile], the EC50 lay within 0.001 to 1 µM.

Consider `NCC#Cc1ccnc(N2CCN(C(=O)N3N=CCC3c3cc(F)cc(F)c3)CC2)n1` (centres unmarked) [Compound 382, (4-(4-(3-aminoprop-1-yn-1-yl)pyrimidin-2-yl)piperazin-1-yl)(5-(3,5-difluorophenyl)-4,5-dihydro-1H-pyrazol-1-yl)methanone frifluoroacetate], for which the EC50 was in the range of 0.001 to 1 µM.

Consider `O=C(N1CC(=Cc2ccc3cn[nH]c3c2)C1)N1N=CC[C@H]1c1cc(F)cc(F)c1` [Compound 310, (S)-(3-((1H-indazol-6-yl)methylene)azetidin-1-yl)(5-(3,5-difluorophenyl)-4,5-dihydro-1H-pyrazol-1-yl)methanone], for which the concentration for a half-maximal effect (EC50) was 0.001 to 1 µM.

In the case of `O=C1COc2cc(F)c(OC3CN(C(=O)N4N=CC[C@H]4c4cccc(F)c4)C3)cc2N1` [Compound 200, (S)-7-fluoro-6-((1-(5-(3-fluorophenyl)-4,5-dihydro-1H-pyrazole-1-carbonyl)azetidin-3-yl)oxy)-2H-benzo[b][1,4]oxazin-3(4H)-one], the EC50 lay in the range of 0.001 to 1 µM.

With `NC(=O)c1cc(Cl)nc(O[C@H]2CCN(C(=O)N3N=CC[C@H]3c3cc(F)cc(F)c3)C2)c1` [Compound 331, 2-chloro-6-(((S)-1-((S)-5-(3,5-difluorophenyl)-4,5-dihydro-1H-pyrazole-1-carbonyl)pyrrolidin-3-yl)oxy)isonicotinamide], the EC50 lay within 0.001 to 1 µM.

Consider `O=C1COc2cc(F)c(OC3CN(C(=O)N4N=CC[C@H]4c4ccccc4)C3)cc2N1` [Compound 192, (S)-7-fluoro-6-((1-(5-phenyl-4,5-dihydro-1H-pyrazole-1-carbonyl)azetidin-3-yl)oxy)-2H-benzo[b][1,4]oxazin-3(4H)-one], for which the EC50 was in the range of 0.001 to 1 µM.

Turning to `O=C(N1CC(Oc2ccc3cn[nH]c3c2)C1)N1N=CC[C@H]1c1cc(F)cc(F)c1` [Compound 234, (S)(3-((1H-indazol-6-yl)oxy)azetidin-1-yl)(5-(3,5-difluorophenyl)-4,5-dihydro-1H-pyrazol-1-yl)methanone], the EC50 was in the range of 0.001 to 1 µM.

For `N#Cc1cc(F)ccc1C=C1CN(C(=O)N2N=CC[C@H]2c2cc(F)cc(F)c2)C1` [Compound 321, (S)-2-((1-(5-(3,5-difluorophenyl)-4,5-dihydro-1H-pyrazole-1-carbonyl)azetidin-3-ylidene)methyl)-5-fluorobenzonitrile], the EC50 lay in the range of 0.001 to 1 µM.

`N#Cc1nccc(OC2CN(C(=O)N3N=CC[C@H]3c3cc(F)cc(F)c3)C2)n1` [Compound 265, (S)-4-((1-(5-(3,5-difluorophenyl)-4,5-dihydro-1H-pyrazole-1-carbonyl)azetidin-3-yl)oxy)pyrimidine-2-carbonitrile]: the 50% effective concentration (EC50) is 0.001 to 1 µM.

As to `O=C1CCc2ccc(C=C3CN(C(=O)N4N=CCC4c4cc(F)cc(F)c4)C3)cc2N1` (centres unmarked) [Compound 277, 7-((1-(5-(3,5-difluorophenyl)-4,5-dihydro-1H-pyrazole-1-carbonyl)azetidin-3-yildene)methyl)-3,4-dihydroquinolin-2(1H)-one], the EC50 fell in the range of 0.001 to 1 µM.

`NC(=O)c1nccc(O[C@@H]2CCN(C(=O)N3N=CC[C@H]3c3cc(F)cc(F)c3)C2)n1` [Compound 364, 4-(((R)-1-((S)-5-(3,5-difluorophenyl)-4,5-dihydro-1H-pyrazole-1-carbonyl)pyrrolidin-3-yl)oxy)pyrimidine-2-carboxamide]: the concentration giving a half-maximal response (EC50) fell in the range of 0.001 to 1 µM.

`O=C(N1CC(Oc2ccc(O)nc2)C1)N1N=CCC1c1cc(F)cc(F)c1` (centres unmarked) [Compound 217, (5-(3,5-difluorophenyl)-4,5-dihydro-1H-pyrazol-1-yl)(3-((6-hydroxypyridin-3-yl)oxy)115zetidine-1-yl)methanone]: the EC50 lay in the range of 0.001 to 1 µM.
